These results are taken from patent publication US20120132204A1, “UNIT DOSE DRY POWDER INHALER” (priority 2005, published 2012).

For data set [1] the following is noted: preclinical pharmacology studies; cited from earlier work.
The subject of data set [2] is cytochrome P450 isoenzymes. The settings on record: cited from earlier work.
The next data set deals with plasma proteins. As to conditions: cited from earlier work.
In a further data set the test system is migraine. The settings on record: cited from earlier work.
The conditions of data set [3]: broad dose range of 1 to 100 mg; cited from earlier work.
The test system of the next data set is 5-HT receptor. As to conditions: compared within the triptan class; cited from earlier work.
The nature of data set [4]: Particle size of spray-dried powder (Predictive Example). The class given is physicochemical. The settings on record: spray dried from 10% w/v feedstock. The method, then:
A feedstock comprising 10% w/v frovatriptan succinate was fed to an in-house spray-dryer and was spray dried at the following settings: feed rate=2.1 g/min, inlet temp=130° C., outlet temp=66° C., atomisation=2-fluid nozzle, atomisation pressure=2 barg, atomisation air flow rate=21 l/min, drying air pressure=1 barg, drying air flow rate=5 l/sec. A respirable powder of less than 10 microns was produced which could then be administered to a patient in need of rapid relief from a migraine using the unit-dose dry powder inhaler of the invention.

Regarding `CN[C@@H]1CCc2[nH]c3ccc(C(N)=O)cc3c2C1` [Frovatriptan], the cerebro-selectivity entry in data set [1] is “apparently cerebro-selective”. In addition, in data set [2], the “inhibiting or inducing effects on cytochrome P450 isoenzymes” value is given as “no inhibiting or inducing effects”. Moreover, the “binding to plasma proteins” value in the data set with plasma proteins is listed as “only slightly bound”. The response rates entry in the data set on migraine (compared with placebo) was “significantly higher response rates compared with placebo”. Besides, the headache recurrence rates entry with migraine (compared within the triptan class) is recorded as “lowest reported range of headache recurrence rates in the triptan class”. The tolerability result in data set [3] is recorded as “well-tolerated”. Moreover, the 5-HT potency result with 5-HT receptor was “highest 5-HT potency in the triptan class”.
For `CN[C@@H]1CCc2[nH]c3ccc(C(N)=O)cc3c2C1` [frovatriptan succinate], in data set [4], the “particle size of respirable powder” value is “less than 10 microns”.
